From article PMC6499206, “Quantification of Volatile Metabolites Derived From Garlic (Allium sativum) in Human Urine” (Frontiers in Nutrition, 2019) come the findings set out here.

SMILES strings stand for the structures.

The series is described as follows: Quantification of garlic-derived metabolites in human urine after ingestion of 3 g raw garlic (SIDA, SAFE, HRGC-MS / HRGC-GC-MS). The class given is in vivo. Conditions: human urine; also refs 5, 16. The text has this: Human urine samples were obtained from 18 volunteers (age 22–38 years, mean 27 years; 11 females, 7 males); thereby, one volunteer conducted the whole experimental series twice. At the time of examination, volunteers reported no known illness that might have potentially influenced the metabolism or the excretion of urine. The test persons were instructed to avoid foods that were rich in sulfur-containing substances at the testing day as well as 2 days preceding the testing day, namely garlic, onion, wild garlic, chives, cabbage, and leek, and were only allowed to consume the garlic sample provided in the course of the experiments. Additionally, subjects were asked to keep records of the food (including food supplements) and beverages they consumed during these 3 testing days. Generally, the overall panelists' requirements were in accordance with our previous studies ([5], [16]).
On the sampling day, the outer garlic cloves of a whole garlic bulb were peeled and cut into ~3 mm cubes by using a garlic cutter (Genius GmbH, Limburg/Lahn, Germany). Subsequently these cubes were thoroughly mixed and aliquoted into 3 g portions. Three to four test persons conducted the experiment at the same day. Each test person was asked to ingest a garlic portion of 3 g. In total, eight consecutive urine samples were provided by each test person, comprising one whole urine set. The samples were collected in sterile brown glass bottles, with sampling times as follows: one sample was provided directly prior to garlic consumption. The series of the second to eighth sample was then obtained at about 0.5, 1, 2, 4, 6, 8, and 24 h after garlic consumption, respectively. Between the first urine sample (prior to garlic consumption) and the seventh urine sample (8 h after garlic consumption) test persons only spent urine at the specific time points mentioned before. Another sample was provided at the next morning (24 h after garlic consumption). Between the samples provided 8 and 24 h after garlic consumption no urine was collected. All samples were immediately placed into a −80°C freezer and were kept frozen until further analysis.
The samples of each set were termed according to their sampling time. The following list provides the time intervals that are related to the respective sample name: • - pre: before garlic consumption • - 0.5 h post: 0.4–0.8 h after garlic consumption • - 1 h post: 0.9–1.3 h after garlic consumption • - 2 h post: 1.8 h−2.2 h after garlic consumption • - 4 h post: 3.8–4.4 h after garlic consumption • - 6 h post: 5.8–6.4 h after garlic consumption • - 8 h post: 7.8–8.4 h after garlic consumption • - 24 h post: 23.8–25.6 h after garlic consumption
A creatinine kit (Labor+Technik Eberhard Lehmann GmbH, Berlin, Germany) was used to determine the creatinine content in each urine sample. The determination principle of this kit is based on the reaction of creatinine with picric acid under basic conditions (Jaffé reaction). The formed complex was detected photometrically at a wavelength of 492 nm.
For quantification purposes, the deuterated standards ^2H3-AMS, ^2H3-AMSO, and ^2H3-AMSO2 were added to the sample and stirred for 10 min. Subsequently, DCM was added in a ratio of 1:2 (DCM/human urine; v/v) and this solution was stirred for further 30 min at room temperature. To isolate the volatile fraction from the urine samples we then applied SAFE-distillation ([17]), thereby distilling the respective samples at 50°C. After completion of the distillation process, 10 mL of DCM were applied in each case to rinse the SAFE apparatus and to ensure complete transition of the volatile compounds. This process was repeated with another 10 mL of DCM. After thawing, the obtained aqueous distillate phase was extracted three times with 25 mL DCM. The organic phases were combined, dried over anhydrous Na2SO4 and concentrated to a total volume of 100 μL by means of Vigreux distillation and subsequent micro-distillation at 50°C. […]

For `C=CCS(=O)(=O)CC=C` [diallyl sulfone], the “presence as metabolite in human urine after garlic consumption” value is “exclude the presence”.
